Results on nine compounds are retold here after paper PMC5945515, “Measuring glucocorticoid receptor expression in vivo with PET” (Oncotarget, 2018).

Each structure is given as a SMILES string. Read-outs that look alike come from different tables or passages of the source. Bounds are passed on as bounds.

Data set [1] addresses GR. The settings on record: cited from earlier work.
For data set [2] the following is noted: cited from earlier work.
The target of data set [3] is T1, human GR (Homo sapiens, UniProt P04150).
T1 construct: PC3 and DU145, two human prostate cancer models with endogenous GR expression; endogenous in cells; host or cells: DU145
T1 sequence (P04150 1-777): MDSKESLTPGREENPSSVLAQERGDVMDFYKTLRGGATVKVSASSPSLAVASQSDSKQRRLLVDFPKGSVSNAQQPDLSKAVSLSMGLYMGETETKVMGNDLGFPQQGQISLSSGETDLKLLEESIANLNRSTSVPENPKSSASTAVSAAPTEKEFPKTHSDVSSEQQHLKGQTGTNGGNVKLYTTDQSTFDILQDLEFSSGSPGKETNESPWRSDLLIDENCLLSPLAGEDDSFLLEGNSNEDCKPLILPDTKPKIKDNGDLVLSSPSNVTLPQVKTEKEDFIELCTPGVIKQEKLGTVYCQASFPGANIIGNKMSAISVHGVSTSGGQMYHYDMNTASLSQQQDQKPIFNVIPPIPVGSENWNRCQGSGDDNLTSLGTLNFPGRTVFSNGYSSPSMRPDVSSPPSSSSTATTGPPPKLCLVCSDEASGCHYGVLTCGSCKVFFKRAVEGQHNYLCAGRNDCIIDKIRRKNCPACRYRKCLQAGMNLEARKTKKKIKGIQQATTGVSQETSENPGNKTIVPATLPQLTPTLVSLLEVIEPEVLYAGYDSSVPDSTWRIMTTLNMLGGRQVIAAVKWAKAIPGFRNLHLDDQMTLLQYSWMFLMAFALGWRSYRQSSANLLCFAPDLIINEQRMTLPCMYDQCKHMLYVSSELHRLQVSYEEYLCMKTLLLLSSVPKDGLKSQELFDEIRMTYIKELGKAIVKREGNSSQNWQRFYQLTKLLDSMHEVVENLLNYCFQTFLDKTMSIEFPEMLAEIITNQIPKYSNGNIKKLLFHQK
In words: Competition binding assay on cells, human GR. Particulars: Supplementary Table 1; read-out: KD for human GR. The procedure: The KD for subfamily 3 group C nuclear hormone receptors was determined on cells by displacing ^3H-steroidal agonists for the respective receptor.
The cold ligands and ^3H-steroids were co-incubated on cells in PBS at room temperature for one hour. Following incubation, the cells were washed twice with ice cold PBS and the unbound activity was retained for analysis. The cells were lysed with 1 mL of 1 M NaOH and collected. Bound and unbound fractions were counted in a liquid scintillation counter and expressed as a percentage of the total activity added per equal relative number of cells. […] The specific binding component was plotted against the log of the competing ligand and curve fit using a non-linear regression algorithm with PRISM software.

The nature of data set [4]: PET/CT and biodistribution in tumor naive C57BL6/J mice. It counts as in vivo, mouse.
Experiment in data set [5]: as above
It counts as in vivo, mouse. The procedure:
All radiotracers were administered via tail vein injection in < 300 μL PBS. Intact male C57BL6/J or nu/nu mice were treated with vehicle or mife. (25 mg/kg) via oral gavage for four days prior to injection with ∼11 MBq of ^18F-GR02. Mice were anesthetized and imaged with a Siemens Inveon small animal PET/CT at dedicated time points post injection. Each mouse was imaged until 20 million coincident events were collected. All imaging data was reconstructed, decay corrected, and analyzed with AMIDE or ASIPro software. Maximum intensity projections were generated with ASIPro software. ASIPro software was also used to draw manual two dimensional regions of interest to calculate SUV data for static or dynamic acquisitions.
(§1) At dedicated time points post injection, mice were humanely euthanized with CO2 (g) asphyxiation and blood and tissues were removed, washed, dried and weighed. The activity associated with each tissue was measured with a gamma counter. The data was decay corrected and expressed as a percentage of the injected dose per gram of tissue with PRISM software.
The source holds these as a separate data set.

The subject of data set [6] is subrenal capsule PC3 tumors. Kind of data set: Biodistribution in mice bearing subrenal capsule PC3 tumors. It counts as in vivo, mouse. As for the experimental part:
(§2) All animal experiments were conducted with prior approval from IACUC at UCSF. Five to seven week old male nu/nu, intact or adx C57BL6/J mice were purchased from Charles River. Adx mice were provided drinking water supplemented with 0.9% NaCl (aq.). Male nu/nu mice received a subcutaneous bolus of 1 × 10^7 PC3 or DU145 cells in Matrigel and growth media (1:1 v/v) in the flank for tumor imaging studies with ^18F-GR02. For subrenal capsule tumor implants, 4–6 week old male Rag2 knockout mice (Taconic Farms) were placed under anesthesia with ∼2% isoflurane. A half centimeter dorsal midline incision was performed, and one kidney was gently pulled though the incision by applying pressure to the muscle wall. The kidney capsule was lifted from the parenchyma of the kidney, and PC3 cells (5 × 10^6 in 50 μL PBS) were injected into the pocket under the capsule. The kidney was placed back and the skin incision was closed using 3 surgical sutures. The mice were treated once with Carprofen (5–10 mg/kg) to ease recovery. Mice were observed over 24 hours for signs of post-operative pain, bleeding and/or other complications. Tumor progression was followed for 7–14 days after surgery with a 14 T Agilent small animal MRI to identify tumors of suitable size to conduct the biodistribution study.
as §1

For data set [7], the system named is subcutaneous DU145 tumors. Kind of data set: Biodistribution in mice bearing subcutaneous DU145 tumors. It counts as in vivo, mouse. Particulars: one hour post injection. The procedure: as §2, with “The kidney was placed back and the skin incision was closed using 3 surgical sutures. The mice were treated once with Carprofen (5–10 mg/kg) to ease recovery. Mice were observed over 24 hours for signs of post-operative pain, bleeding and/or other complications. Tumor progression was followed for 7–14 days after surgery with a 14 T Agilent small animal MRI to identify tumors of suitable size to conduct the biodistribution study.” left out
(§3) All radiotracers were administered via tail vein injection in < 300 μL PBS. […] All imaging data was reconstructed, decay corrected, and analyzed with AMIDE or ASIPro software. […]
as §1

Data set [8] relates to subcutaneous PC3 tumors. In words: Biodistribution in mice bearing subcutaneous PC3 tumors. The format is in vivo, mouse. The settings on record: one hour post injection. As for the experimental part:
as §2, with “The kidney was placed back and the skin incision was closed using 3 surgical sutures. The mice were treated once with Carprofen (5–10 mg/kg) to ease recovery. Mice were observed over 24 hours for signs of post-operative pain, bleeding and/or other complications. Tumor progression was followed for 7–14 days after surgery with a 14 T Agilent small animal MRI to identify tumors of suitable size to conduct the biodistribution study.” left out
as §3, §1

Data set [9] is described as follows: Log P determination (octanol:water). The format is physicochemical. As for the experimental part:
To a microcentrifuge tube containing 1 mL of octanol:water (1:1 v/v) was added 50 μL of ^18F-GR02 (total activity = 37 MBq). The solution was vortexed vigorously for 30 sec, and the biphasic layers were allowed to separate. The layers were manually pipetted into new microcentrifuge tubes, and the activity of each fraction was read with a dose calibrator. The water fraction contained 1.7 MBq, and the octanol fraction contained 35.3 MBq.

[10] abbreviates: mouse intact, 60 minutes post injection.
Where [11] appears, read: intact male nu/nu mice, vehicle.
The mark [12] stands for this setting: octanol:water 1:1, total activity 37 MBq.
[13] abbreviates: mouse adrenalectomized, 60 minutes post injection.

What is called Kd is the concentration at which binding is half-saturated. Consider `CC1(C)O[C@@H]2C[C@H]3[C@@H]4CCC5=CC(=O)C=C[C@]5(C)[C@@]4(F)[C@@H](O)C[C@]3(C)[C@]2(C(=O)CF)O1` [21-[18F]-deoxytriamcinolone acetonide], for which the Kd in data set [1] (ref PMID 1526811) was 2.1 nM.

In the case of `CC12C=CC(=O)C=C1CCC1C2C(=O)CC2(C)C1CCC2(O)C(=O)C[18F]` (stereo not drawn) [21-[18F]-prednisone], the logP o/w in data set [2] (ref PMID 3495649) was 2.1.

As for `C=CCC1Oc2cccc(OC)c2-c2ccc3c(c21)C(C)=CC(C)(C)N3` (stereo not drawn) [[11 C]-Al-438], the Kd in data set [1] (ref PMID 17499506) was 8.1 nM.

Consider `C=CCC1Oc2cccc(O[11CH3])c2-c2ccc3c(c21)C(C)=CC(C)(C)N3` (stereo not drawn) [[11 C]-Al-438], for which the logP o/w in data set [2] (ref PMID 17499506) is reported as 6.13.

In the case of `CC12C=CC(=O)C=C1CCC1C2C(O)CC2(C)C1CCC2(O)C(=O)COCCCF` (stereo not drawn) [^18F-GR01], the Kd in [3] stood at 3.8 nM.

Consider `CC12C=CC(=O)C=C1CCC1C2C(O)CC2(C)C1CCC2(O)C(=O)COCCC[18F]` (stereo not drawn) [^18F-GR01], for which the bone associated activity in data set [4] (intact male C57BL6/J mice, 60 minutes post injection) is listed as ~20 % ID/g.

For `CC12C=CC(=O)C=C1CCC1C2C(O)CC2(C)C1CCC2(O)C(=O)CNC(=O)c1ccc(F)cc1` (stereo not drawn) [^18F-GR02], the Kd in data set [3] came to 15.9 nM.

Consider `CC12C=CC(=O)C=C1CCC1C2C(O)CC2(C)C1CCC2(O)C(=O)CNC(=O)c1ccc([18F])cc1` (stereo not drawn) [^18F-GR02], for which the “fold higher specific binding in liver vs prior GR-targeted radiotracers” value in data set [5] (compared with literature data of Supplementary Table 2) was 3–10 fold. Also, in [5] (setting [10]), the Bone is listed as 0.28 ± 0.1 % ID/g, the Brain turned out to be 0.06 ± 0.02 % ID/g, the Heart is 0.81 ± 0.5 % ID/g and the Lung was determined as 0.64 ± 0.4 % ID/g. Moreover, the Spleen in data set [5] (setting [10]) stood at 0.63 ± 0.1 % ID/g. The “fold higher uptake in renal capsule tumor vs subcutaneous PC3 tumor” value in data set [6] (mouse, in vivo, sc) is listed as ~16 fold. Further, the “uptake in renal capsule PC3 tumor after mife.” value in data set [6] (pretreatment with mife. 25 mg/kg, 60 minutes post injection) is listed as 2.84 ± 1.8 % ID/g. In addition, the “uptake in renal capsule PC3 tumor” value in data set [6] (vehicle, 60 minutes post injection) worked out at 6.24 ± 1.0 % ID/g. For the same compound, the “uptake in subcutaneous DU145 tumors after mife.” value in data set [7] (four days prior mife. 25 mg/kg) came to 0.23 ± 0.09 % ID/g. In addition, in data set [7] (setting [11]), the “uptake in subcutaneous DU145 tumors” value was 0.45 ± 0.2 % ID/g. In [8] (four days prior mife. 25 mg/kg), the “uptake in subcutaneous PC3 tumors after mife.” value is 0.18 ± 0.07 % ID/g. Further, the “uptake in subcutaneous PC3 tumors” value in [8] (setting [11]) is given as 0.37 ± 0.1 % ID/g. In addition, in [9] (setting [12]), the “activity in the octanol fraction” value turned out to be 35.3 MBq and the “activity in the water fraction” value came to 1.7 MBq. The “log P (o/w)” value in data set [9] (octanol:water 1:1 v/v) is listed as 1.33. In addition, the “uptake in the brain across the treatment arms” value in data set [4] (C57BL6/J mice, intact/adx, vehicle/mife., 60 min post injection) is 0.05–0.2 % ID/g. Moreover, in [4] (setting [13]), the Blood is 2.36 ± 1.6 % ID/g, the Bone is given as 1.25 ± 0.8 % ID/g, the Brain worked out at 0.17 ± 0.05 % ID/g and the Heart was 2.39 ± 0.6 % ID/g. Moreover, in data set [4] (setting [13]), the Kidney is listed as 13.42 ± 3.1 % ID/g, the Liver stood at 21.83 ± 3.3 % ID/g, the Lung was found to be 2.15 ± 1.0 % ID/g and the Muscle is on record as 1.15 ± 0.4 % ID/g. In [4] (setting [13]), this compound had a Spleen of 1.41 ± 0.6 % ID/g and a Stomach of 5.54 ± 2.4 % ID/g. In data set [4] (setting [10]), this compound had a Blood of 0.83 ± 0.3 % ID/g, a Kidney of 3.96 ± 1.9 % ID/g, a Liver of 7.98 ± 1.5 % ID/g and a Muscle of 0.36 ± 0.3 % ID/g. The compound further had a Stomach in [4] (setting [10]) of 0.62 ± 0.1 % ID/g. In addition, the “time of peak accumulation in the liver post injection” value in data set [4] (one hour dynamic PET scan, intact male C57BL6/J mouse) is ≤ 10 min.

For the compound `CC#C[C@]1(O)CC[C@H]2[C@@H]3CCC4=CC(=O)CCC4=C3[C@@H](c3ccc(N(C)C)cc3)C[C@@]21C` [mife., mifepristone, reference compound], in data set [5] (intact C57BL6/J mice, 25 mg/kg daily oral gavage for four days, one hour post injection), the “effect on 18F-GR02 uptake in liver, spleen, small intestine and stomach” value is given as “statistically significant suppression”. The “effect on 18F-GR02 uptake in several tissues, including liver, kidney and stomach” value in data set [4] (adx C57BL6/J mice, mife. pretreatment) is listed as “suppressed ^18F-GR02 uptake to a statistically significant extent”.
